# Where two headings read alike, the source gives them in different places.
# Legend:
# dairy cattle [1] = assay: Tolerability limits: intake limits of minerals for dairy cattle; type: in vivo
# dairy cattle [2] = settings: cited from earlier work
# dairy cattle [3] = assay: Methane intensity versus normalized bromoform intake (Asparagopsis quantity calculation); type: in vivo; settings: regression constant
# Procedure: In still another embodiment, a regression constant is determined. The regression constant relates the amount of bromoform required to achieve a set percentage of methane reduction per amount of neutral detergent fiber present in the animal's diet. Thus, the algorithm comprises the steps of: i) Determining the target methane reduction percentage and subsequently the target absolute reduction (g CH4/kg milk); ii) Determining cow's NDF intake, based on dry matter intake (DMI) and NDF proportion; iii) Determining the normalized bromoform concentration required (equivalent to the desired absolute reduction divided by the regression constant, where the regression constant is the Reduction in methane intensity (g CH4/kg milk) per unit normalized bromoform intake (mg/kg of NDF); iv) Multiplying by the NDF intake to determine the required bromoform concentration (mg) and v) Dividing by the bromoform concentration in that seaweed to determine amount of seaweed required.
# [4] = In vivo fate of bromoform delivered from red macroalgae feed supplement; parameters: species or system livestock
# livestock rumens = assay: Rumen propionate:acetate ratio and meat trans fat in livestock fed red algae; settings: in vitro and in vivo testing
# From the text: It is known that bromoform is safely and usefully degraded in anaerobic environments like livestock rumens where the enzyme methyl-coenzyme M reductase is present.
# [5] = dairy cattle, at the maximum allowable limit
Compound,Intake for a Cow Consuming 20.14 kg DM/day (dairy cattle [1]; [5]) [mg/day],Maximum Allowable Component Intake Limit per Daily kg of DM Consumption (dairy cattle [2]; dairy cattle) [mg/kg DMI],"Intake for a Cow Consuming 20.14 kg DM/day (dairy cattle [1]; bovine, in vivo) [mg/day]","Maximum Allowable Component Intake Limit per Daily kg of DM Consumption (dairy cattle [2]; bovine, in vivo) [mg/kg DMI]",further results
[Ca+2] [Calcium],302100,15000,–,–,–
[Mn+2] [Manganese],40280,2000,–,–,–
[Co] [Cobalt],504,25,–,–,–
[Mo] [Molybdenum],–,–,101,5,–
[Pb] [Lead],2014,100,–,–,–
[Cd] [Cadmium],201,10,–,–,–
[K+] [Potassium],–,–,402800,20000,–
BrC(Br)Br [bromoform],–,–,–,–,"Slope-Reduction in methane intensity (g CH4/kg milk) per normalized unit bromoform intake (mg/kg of NDF) (dairy cattle [3]): −0.049 g CH4/kg milk per mg/kg of NDF; absorption of bromoform into rumen wall or other organs [4]: not absorbed into the rumen wall, or other organs; bromoform in milk, meat or manure [4]: not found; propionate:acetate ratios in livestock rumens (livestock rumens): increases the propionate:acetate ratios"
Arsenic,604,30,–,–,–
[Cr] [Chromium],2014,100,–,–,–
[Se] [Selenium],101,–,–,5,–
Copper,–,–,806,40,–
Sodium,1706704,84742,–,–,–
[Al] [Aluminum],–,–,20140,1000,–
S1SSSSSSS1 [Sulfur],60420,3000,–,–,–
[Mg+2] [Magnesium],–,6000,120840,–,–
[Zn] [Zinc],10070,500,–,–,–
Phosphorous,–,–,140980,7000,–
[Fe] [Iron],–,–,10070,500,–
[B] [Boron],–,–,3021,150,–
